Patent publication US11554172B2, “Phosphonate linkers and their use to facilitate cellular retention of compounds” (priority 2016, dated 2023)

System: GILZ gene
Assay: GILZ gene assay (qPCR, HUT78 / 786-O cells)
Format: cell-based
Settings: at 10 uM
Experimental: GILZ gene assays were conducted as follows. HUT78 cells were cultured in IMEM plus 20% heat inactivated FBS and cell density was maintained between 0.1 to 1.2 million/mL. 786-O cells were cultured in RPMI plus 10% heat inactivated FBS. Actively growing cells were harvested and resuspended in HBSS with 2% FBS at 1.1 million cells per mL then dispensed to 384-well V-bottom plates at 45 μL per well. Serially diluted ADC solution was added to the cell plate (5 μL per well) and mixed for 2 min. Cells were then cultured at 37° C., at 5% CO2 for a designated time before supernatant was removed. Cells were harvested in lysis buffer from the Cells-to-Ct kit (40 μL, Life Technologies, 4391851C) following the supplier's protocol and mixed for 10 min followed by addition of 5 μL per well of stop solution from the kit. cDNA was synthesized with a reverse transcription kit (Life Technologies, 4391852C) follow by qPCR using the TaqMan gene expression master mix (Life Technologies, 4369016) with GILZ gene assay (Life Technologies, Hs00608272_m1) and GAPDH assay (Hs2758991_g1) in a duplex format with 3-4 technical replicates.

Molecule	GILZ Max
(6-(3-((3aR,4aS,4bS,11aR,11bS,12S,13aS,13bS)-12-hydroxy-13b-(2-hydroxyacetyl)-11a,13a-dimethyl-2-propyl-4,4a,5,6,11,11a,11b,12,13,13a-decahydro-[1,3]dioxolo[4″,5″:3′,4′]cyclopenta[1′,2′:5,6]naphtho[,2-f]indazol-8(3aH,4bH,13bH)-yl)phenoxy)hexyl)phosphonic acid [Compound 27]	80% (at

Same assay, conditions: read-out: GILZ EC50

Molecule	EC50
(6-(3-((3aR,4aS,4bS,11aR,11bS,12S,13aS,13bS)-12-hydroxy-13b-(2-hydroxyacetyl)-11a,13a-dimethyl-2-propyl-4,4a,5,6,11,11a,11b,12,13,13a-decahydro-[1,3]dioxolo[4″,5″:3′,4′]cyclopenta[1′,2′:5,6]naphtho[,2-f]indazol-8(3aH,4bH,13bH)-yl)phenoxy)hexyl)phosphonic acid [Compound 27]	2760 nM
C[C@@H]1C[C@H]2[C@@H]3C[C@H](F)C4=CC(=O)C=C[C@]4(C)[C@@]3(F)[C@@H](O)C[C@]2(C)[C@@]1(OC(=O)CCCCCP(=O)(O)O)C(=O)SCF [Compound 19, (6-(((6S,8S,9R,10S,11S,13S,14S,16R,17R)-6,9-difluoro-17-(((fluoromethyl)thio)carbonyl)-11-hydroxy-10,13,16-trimethyl-3-oxo-6,7,8,9,10,11,12,13,14,15,16,17-dodecahydro-3H-cyclopenta[a]phenanthren-17-yl)oxy)-6-oxohexyl)phosphonic acid]	1290 nM

Biological target: GR full length protein (glucocorticoid receptor) (Homo sapiens (Human), UniProt P04150)
Assay: PolarScreen Glucocorticoid Receptor Competitor Assay (GR binding)
Settings: fluorescence polarisation competitor assay, 2-4 hours at room temperature; read-out: GR Bind IC50
Experimental: The potency of binding to gucocorticoid receptor by small molecule compounds was measured with the PolarScreen™ Glucocorticoid Receptor Competitor Assay Kit, Red (Life Technology, Catalog #A15898) according to the procedure in the kit. In brief, after compounds were diluted and transferred into assay plates, the fluormone GS red and GR full length protein were subsequently added into the assay plates, along with the positive and negative controls. The samples were mixed on a shaker for 1 minute and then the plates were incubated at room temperature for 2-4 hours with minimal light exposure. The plates were read with an Envision and the relative fluorescent signals were calculated. The data were plotted in GraphPad Prism and the EC50 values were calculated with non-linear regression curve fit of the data in GraphPad Prism.

Sequence of GR full length protein (glucocorticoid receptor) (P04150 whole entry): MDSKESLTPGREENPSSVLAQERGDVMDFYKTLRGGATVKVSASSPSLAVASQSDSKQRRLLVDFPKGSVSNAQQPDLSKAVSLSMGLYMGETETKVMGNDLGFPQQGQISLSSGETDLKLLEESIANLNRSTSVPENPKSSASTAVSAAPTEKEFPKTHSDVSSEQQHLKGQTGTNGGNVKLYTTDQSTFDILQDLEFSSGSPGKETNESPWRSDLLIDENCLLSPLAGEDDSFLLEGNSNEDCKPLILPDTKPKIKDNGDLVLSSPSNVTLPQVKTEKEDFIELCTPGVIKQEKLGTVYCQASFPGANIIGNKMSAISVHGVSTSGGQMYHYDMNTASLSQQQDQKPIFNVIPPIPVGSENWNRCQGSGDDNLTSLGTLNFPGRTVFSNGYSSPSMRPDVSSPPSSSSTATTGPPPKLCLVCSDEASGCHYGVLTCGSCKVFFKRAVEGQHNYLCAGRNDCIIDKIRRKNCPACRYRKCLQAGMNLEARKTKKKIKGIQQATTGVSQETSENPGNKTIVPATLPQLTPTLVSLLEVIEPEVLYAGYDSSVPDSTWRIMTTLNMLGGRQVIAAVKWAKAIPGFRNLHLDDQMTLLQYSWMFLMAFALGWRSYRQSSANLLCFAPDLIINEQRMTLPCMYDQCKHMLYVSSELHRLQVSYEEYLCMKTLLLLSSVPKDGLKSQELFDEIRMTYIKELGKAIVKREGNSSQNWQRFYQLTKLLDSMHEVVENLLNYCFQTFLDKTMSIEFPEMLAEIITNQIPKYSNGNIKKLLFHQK

Molecule	IC50
C[C@@H]1C[C@H]2[C@@H]3C[C@H](F)C4=CC(=O)C=C[C@]4(C)[C@@]3(F)[C@@H](O)C[C@]2(C)[C@@]1(OC(=O)CCCCCP(=O)(O)O)C(=O)SCF [Compound 19, (6-(((6S,8S,9R,10S,11S,13S,14S,16R,17R)-6,9-difluoro-17-(((fluoromethyl)thio)carbonyl)-11-hydroxy-10,13,16-trimethyl-3-oxo-6,7,8,9,10,11,12,13,14,15,16,17-dodecahydro-3H-cyclopenta[a]phenanthren-17-yl)oxy)-6-oxohexyl)phosphonic acid]	0.14 nM

System: MDCKII cells
Assay: Apparent permeability in MDCKII cells
Format: in vitro ADME
Settings: Papp, average of A to B and B to A, 1 μM test compound, t=3 hr
Experimental: Determination of apparent permeability was as follows. MDCKII cells (kindly provided by the Netherlands Cancer Institute, under a licensing agreement) were seeded on to 96-well transwell culture plates (Millipore Corp, Billerica, Mass.) and used in experiments after five days in culture. […] Substrate solution (150 μL) was added to either the apical (A) or the basolateral (B) compartment of the culture plate, and buffer (150 μL; HBSS, 10 mM HEPES, pH 7.4) with 10 μM cyclosporine A was added to the compartment opposite to that containing the substrate. At t=3 hr, 50 μL samples were removed from both sides of monolayers dosed with test compound and placed in 96 well plates, 50 μL internal standard (1 μM labetolol) and 100 μL HBSS was added to the samples. Samples were analyzed by LC/MS/MS using an Applied Biosystems SCIEX API 5000 triple quadruple mass spectrometer (Concord, ON, Canada) with a TurboIonSpray ion source in the positive ion mode. A Thermo Scientific Transcend LX-2 system (Franklin, Mass.) was coupled to the API 5000 with a flow rate of 800 μL/min to direct sample into the mass spectrometer.
Papp was expressed as 10-6 cm/s.

Molecule	MDCK Permeability (cm × 10-6/sec)
C[C@@H]1C[C@H]2[C@@H]3C[C@H](F)C4=CC(=O)C=C[C@]4(C)[C@@]3(F)[C@@H](O)C[C@]2(C)[C@@]1(O)C(=O)SCCCCCCP(=O)(O)O [Compound 10]	1.9 cm × 10-6/sec
CCC(=O)O[C@]1(C(=O)SCF)[C@H](C)C[C@H]2[C@@H]3C[C@H](F)C4=CC(=O)C=C[C@]4(C)[C@@]3(F)[C@@H](O)C[C@@]21C [Fluticasone Propionate, reference compound]	21.5 cm × 10-6/sec
CCC(=O)O[C@]1(C(=O)SCCCCCCCCCCP(=O)(O)O)[C@H](C)C[C@H]2[C@@H]3C[C@H](F)C4=CC(=O)C=C[C@]4(C)[C@@]3(F)[C@@H](O)C[C@@]21C [Compound 3, (10-(((6S,8S,9R,10S,11S,13S,14S,16R,17R)-6,9-difluoro-11-hydroxy-10,13,16-trimethyl-3-oxo-17-(propionyloxy)-6,7,8,9,10,11,12,13,14,15,16,17-dodecahydro-3H-cyclopenta[a]phenanthrene-17-carbonyl)thio)decyl)phosphonic acid]	1.04 cm × 10-6/sec
CCCC1O[C@@H]2C[C@H]3[C@@H]4CCC5=Cc6c(cnn6-c6cccc(OCCCCP(=O)(O)O)c6)C[C@]5(C)[C@H]4[C@@H](O)C[C@]3(C)[C@]2(C(=O)CO)O1 (stereo partly shown) [Compound 28]	1.6 cm × 10-6/sec
CCCC1O[C@@H]2C[C@H]3[C@@H]4CCC5=Cc6c(cnn6-c6ccc(OCCCCP(=O)(O)O)cc6)C[C@]5(C)[C@H]4[C@@H](O)C[C@]3(C)[C@]2(C(=O)CO)O1 (stereo partly shown) [Compound 30]	1.9 cm × 10-6/sec
CCC(=O)O[C@]1(C(=O)SCCCCCCP(=O)(O)O)[C@H](C)C[C@H]2[C@@H]3C[C@H](F)C4=CC(=O)C=C[C@]4(C)[C@@]3(F)[C@@H](O)C[C@@]21C [Compound 7]	2 cm × 10-6/sec
C[C@@H]1C[C@H]2[C@@H]3C[C@H](F)C4=CC(=O)C=C[C@]4(C)[C@@]3(F)[C@@H](O)C[C@]2(C)[C@@]1(O)C(=O)SCCCCCCCCCCP(=O)(O)O [Compound 8]	2.8 cm × 10-6/sec
C[C@@H]1C[C@H]2[C@@H]3C[C@H](F)C4=CC(=O)C=C[C@]4(C)[C@@]3(F)[C@@H](O)C[C@]2(C)[C@@]1(O)C(=O)SCCCCP(=O)(O)O [Compound 5]	1.84 cm × 10-6/sec
CCCC1O[C@@H]2C[C@H]3[C@@H]4CCC5=Cc6c(cnn6-c6ccc(OCCCCCCP(=O)(O)O)cc6)C[C@]5(C)[C@H]4[C@@H](O)C[C@]3(C)[C@]2(C(=O)CO)O1 (stereo partly shown) [Compound 31]	4.1 cm × 10-6/sec
C[C@@H]1C[C@H]2[C@@H]3C[C@H](F)C4=CC(=O)C=C[C@]4(C)[C@@]3(F)[C@@H](O)C[C@]2(C)[C@@]1(OC(=O)CCCCCCCCP(=O)(O)O)C(=O)SCF [Compound 18, (9-(((6S,8S,9R,10S,11S,13S,14S,16R,17R)-6,9-difluoro-17-(((fluoromethyl)thio)carbonyl)-11-hydroxy-10,13,16-trimethyl-3-oxo-6,7,8,9,10,11,12,13,14,15,16,17-dodecahydro-3H-cyclopenta[a]phenanthren-17-yl)oxy)-9-oxononyl)phosphonic acid]	<0.9 cm × 10-6/sec
CCC(=O)O[C@]1(C(=O)SCCCCP(=O)(O)O)[C@H](C)C[C@H]2[C@@H]3C[C@H](F)C4=CC(=O)C=C[C@]4(C)[C@@]3(F)[C@@H](O)C[C@@]21C [Compound 4]	1.72 cm × 10-6/sec
CCCC1O[C@@H]2C[C@H]3[C@@H]4CCC5=CC(=O)C=C[C@]5(C)[C@H]4[C@@H](O)C[C@]3(C)[C@]2(C(=O)CO)O1 (stereo partly shown) [Budesonide, reference compound]	31.6 cm × 10-6/sec
